Measurements reported in paper PMC13077603, “Fluorine‐18‐Labeled Nucleotide Analogs Targeting Ecto‐5'‐Nucleotidase (CD73) for Positron Emission Tomography Imaging of Solid Tumors” (Angewandte Chemie (International Ed. in English), 2026).

Assay: PET/gamma counter biodistribution in healthy mice
Format: in vivo, C57BL/6 WT mice
Experimental: Next, biodistribution studies of compounds [^18F]1 and [^18F]2 were performed in female C57BL/6 WT mice. Dynamic (0–90 min), static (77–90 min), and late (240–260 min) scans were performed in a small animal PET scanner. Each PET scan was combined with computer tomography (CT). In the case of [^18F]2, […] of the tracer was excreted within the first 30 min via renal (19%ID) and hepatobiliary (60%ID, Figure 5A–C) routes. After 90 min, most of the tracer was found in the intestine, gallbladder, bladder (urine), and liver, while only 0.3 ± 0.1 %ID/mL of the radiosignal was detected in the blood at that time point (Figure 5B, C). Concentrations in the lung, heart, muscle, and brain were also relatively low. Nevertheless, during the first 3 min, the tracer was distributed within the whole body, reaching every tissue (Figure 5A).
The radiotracer [^18F]1 was injected into the tail vein, entered the heart, and was subsequently distributed throughout the whole body. […] Nearly no tracer accumulated in brain and urinary bladder, facilitating a favorable signal‐to‐noise ratio. We prolonged the imaging and performed an additional PET scan after 260 min to further increase the signal‐to‐background ratio. In all investigated residual organs (kidney, lung, heart, liver, and spleen), [^18F]1 was present even after 260 min, indicating a favorable biodistribution and high metabolic stability in vivo (Figure 5F).
Adult C57bl/6 (biodistribution study, 19.8±1.3 g) or tumor-bearing NSG mice (22.2±2.2 g) were anesthetized by isoflurane/O2, and one lateral tail vein was cannulated using a 27 G needle. A respective radiotracer (~ 390 kBq/g body weight) was injected as a bolus via the tail vein, and subsequent PET scanning was performed. A ~1000-fold excess of unlabeled JMS0414 (14 for [^18F]MRS-4648 ([^18F]2)), unlabeled PSB-19427 (1), or PSB-12651 (15) (for [^18F]PSB-19427 ([^18F]1)) was injected into a subgroup of tumor-bearing mice 10 min before radiotracer injection in the blocking studies. PET imaging studies were carried out using a submillimeter high resolution (0.7 mm full width at half-maximum) small animal scanner (32 module quadHIDAC, Oxford Positron Systems Ltd., Oxford, UK) with a uniform spatial resolution (<1 mm) over a large cylindrical field (165 mm diameter, 280 mm axial length). List-mode data were acquired for 90 min and reconstructed into dynamic time frames using an iterative reconstruction algorithm. In a subgroup of mice, measurements were complemented by late time point PET scans for 20 min 4 h after injection. Subsequently, after PET acquisitions, the scanning bed was transferred to the computed tomography (CT) scanner (Inveon, Siemens Medical Solutions, U.S.), and a CT acquisition with a spatial resolution of 80 μm was performed for each mouse. Final acquisitions were performed as contrast-enhanced CT with i.v. injection of iopromid (Ultravist®370). Reconstructed image data sets were coregistered based on extrinsic markers attached to the multimodal scanning bed, and the in-house developed image analysis software MEDgical (EIMI) was used for quantification. Three-dimensional volumes of interest (VOIs) were defined over the respective organs in CT data sets, transferred to the coregistered PET data, and analyzed quantitatively. Regional uptake was calculated as the percentage of injected dose by dividing counts per min (cpm) in the VOI by total counts in the mouse multiplied by 100 (%ID/mL). The clearance of the radiotracers was calculated based on the PET results. PET imaging studies using [^18F]FDG were performed analogously with a few variations. List-mode data were acquired for 60-75 min after tracer injection and reconstructed using an iterative reconstruction algorithm. Additionally, the scanned mice remained alive after PET and CT scans and were used the next day for imaging experiments with [^18F]PSB-19427 ([^18F]1) for direct comparison of [^18F]FDG and [^18F]PSB-19427 ([^18F]1). […]

**Q.** For CCCN(Cc1ccc(-c2cn(CC[18F])nn2)cc1)c1nc(Cl)nc2c1ncn2[C@@H]1O[C@H](COP(=O)(O)CP(=O)(O)O)[C@@H](O)[C@H]1O [[^18F]1, [^18F]-[((2R,3S,4R,5R)-5-{2-chloro-6-[(4-{1-[2-(fluoro)ethyl]-1H-1,2,3-triazol-4-yl}benzyl)-(propyl)amino]-9H-purin-9-yl}-3,4-dihydroxytetrahydrofuran-2-yl)methoxy]methylene-bisphosphonic acid], which Hepatobiliary excretion route (at 90 min p.i.) is on record?
**A.** 37 %ID

**Q.** And the “Radiosignal proportion in the blood” value (at 90 min p.i.)?
**A.** 18.2% ± 1.7 %ID/g

**Q.** What about the Renal excretion route (time not given) of the same compound?
**A.** 2 %ID

**Q.** For Cn1c(=O)n([C@@H]2O[C@H](COP(=O)(O)CP(=O)(O)O)[C@@H](O)[C@H]2O)cc/c1=N/OCc1ccc(-c2cn(CC[18F])nn2)cc1 [[^18F]2, [^18F]-{[(2R,3S,4R,5R)-5-(4-{[(4-{1-[2-(fluoro)ethyl]-1H-1,2,3-triazol-4-yl}benzyl)-oxy]imino}-3-methyl-2-oxo-3,4-dihydropyrimidin-1(2H)-yl)-3,4-dihydroxytetra-hydrofuran-2-yl]methoxy}methylenebisphosphonic acid], which Radiosignal in blood (after 90 min) is on record?
**A.** 0.3 ± 0.1 %ID/mL

**Q.** And the Hepatobiliary excretion (within the first 30 min)?
**A.** 60 %ID

**Q.** And the Renal excretion (within the first 30 min)?
**A.** 19 %ID

**Q.** What about the “Fraction of tracer excreted” value (within the first 30 min, i.v., female C57BL/6 WT mice) of the same compound?
**A.** > 95%
